From article PMC8658773, “Two New Isoprenoid Flavonoids from Sophora flavescens with Antioxidant and Cytotoxic Activities” (Molecules, 2021)

Assays:
[1] = ABTS free radical scavenging assay; format: biochemical; details: for ABTS radical scavenging activity (inhibition rate): 20 μg/mL, SD in brackets
Procedure: The third assay, the ABTS free radical scavenging screen was performed by previous experiments with slight changes. First, we needed to prepare for the ABTS^+ solution. […] Then, they were mixed with equal volume at room temperature and kept away from light for 12 h, the mixed solution was diluted with ethanol until the absorbance of […]. Thus, the ABTS^+ solution was obtained. Furthermore, the compounds (100 µL, 40 µg/mL) with ABTS^+ solution (100 µL) were also added to the 96-well plates (as the value of Ai) and were interacted for 10 min at room temperature in the dark, then the absorbance at 734 nm was measured. VC was used as the positive control. Antioxidant capacity was calculated according to the first formula (the value of 100 µL ethanol with 100 µL ABTS^+ solution as A0, the value of 100 µL compounds with 100 µL ethanol as Aj). All experiments were carried out in triplicate.

[2] = PTIO free radical scavenging assay; format: biochemical; details: for PTIO radical scavenging activity (inhibition rate): 8 μg/mL, SD in brackets
Procedure: PTIO free radical scavenging was also performed following previous reports with some modification. VC was used as the positive control. PTIO radicals were dissolved with phosphate buffer (PBS) (pH 7.4, 50 mM) with a concentration of 0.05 mg/mL. Then, the samples (40 µL, 40 µg/mL) and PTIO solution (160 µL) were added into 96-well plates (as the value of Ai). After being thoroughly mixed, the reaction solution was incubated at 37 °C in a water-bath for 2 h. Then, the absorbance was measured at 557 nm. PTIO free radical scavenging was calculated using the above equation. (40 µL PBS with 160 µL PTIO as A0, 40 µL compounds with 160 µL PBS as Aj).

[3] = DPPH free radical scavenging assay; format: biochemical; details: for DPPH radical scavenging activity (inhibition rate): 20 μg/mL, SD in brackets
Procedure: The in vitro antioxidant activity tests were conducted according to previous reports. Among them, the DPPH free radical scavenging assay was slightly modified. Briefly, the DPPH material was precisely weighed, ethanol solution was added to obtain a concentration of 0.1 mmol/L (to use immediately, or store in the dark). Then, the compounds (100 µL, 40 µg/mL) with DPPH solution (100 µL) (Ai) were added to 96-well plates and incubated for 30 min at room temperature. Subsequently, the activity was measured using the Thermo Scientific Varioskan LUX ([…], VL0L00D0, USA), with an absorbance of 570 nm. Vitamin C (VC) (40 µg/mL) was used as the positive control.

LO2 cells = assay: Cytotoxic activity (MTS assay), LO2 normal cells; format: cell-based, human; details: Homo sapiens, L02; 10 µM; SD in brackets; read-out: LO2 cell inhibitory activity (Table S7)
HepG2 cells = assay: Cytotoxic activity (MTS assay), HepG2; format: cell-based, human; details: Homo sapiens, HepG2, 10 µM; SD in brackets; read-out: HepG2 cell inhibitory activity (Table S4)
A549 cells = assay: Cytotoxic activity (MTS assay), A549; format: cell-based, human; details: Homo sapiens, A549; 10 µM; SD in brackets; read-out: A549 cell inhibitory activity (Table S5)
MCF7 cells = assay: Cytotoxic activity (MTS assay), MCF7; format: cell-based, human; details: Homo sapiens, MCF7; 10 µM; SD in brackets; read-out: MCF-7 cell inhibitory activity (Table S6)

| ABTS radical scavenging IC50 [1] [µg/mL] | DPPH radical scavenging IC50 [3] [µg/mL] | SMILES | PTIO radical scavenging activity (inhibition rate) [2] | DPPH radical scavenging activity (inhibition rate) [3] | inhibition at 10 µM (LO2 cells) [%] | inhibition at 10 µM (HepG2 cells) [%] | inhibition at 10 µM (A549 cells) [%] | inhibition at 10 µM (MCF7 cells) [%] | PTIO radical scavenging IC50 [2] [µg/mL] | ABTS radical scavenging activity (inhibition rate) [1] |
| --- | --- | --- | --- | --- | --- | --- | --- | --- | --- | --- |
| 3.52 |  | C=C(C)[C@H](CC=C(C)C)Cc1c(O)cc(OC)c(C(=O)/C=C/c2ccc(O)cc2O)c1O [Compound 6, kuraridine] | 40.6% (2.2%) | 41.9% (5.6%) | -0.2 | 0.9 | 2 | 15 |  |  |
| 3.72 |  | CC(C)=CCC(Cc1c(O)cc(O)c2c1OC(c1ccc(O)cc1O)CC2=O)C(C)CO (stereo not shown) [Compound 9, kushenol Q] | 36.7% (0.8%) | 30.4% (5.4%) | 5.3 | 3.5 | -10.9 | 4.5 |  |  |
|  |  | O=c1cc(-c2ccc(O)cc2)oc2cccc(O)c12 [Compound 22, 5,4′-dihydroxyflavone] | 39.4% (1.0%) | 34.6% (3.4%) | -4.6 | 0.6 | 29.7 | 9 |  | 76.3% (4.7%) |
|  |  | COc1ccc(-c2coc3cc(O)cc(O)c3c2=O)cc1 [Compound 21, biochanin A] | 37.9% (0.6%) | 46.8% (1.8%) | 5.8 | 7.1 | 8.7 | 1 |  | 76.4% (1.3%) |
|  |  | O=C(O)c1ccc(O)cc1 [Compound 28, 4-hydroxybenzoic acid] | 37.3% (2.3%) | 20.4% (8.6%) | 2.8 | 10.2 | 15.5 | 1.1 |  | 2.2% (0.9%) |
| 1.91 | 2.42 | CC(C)=CCc1c(O)cc(O)c2c(=O)c(O)c(-c3ccc(O)cc3)oc12 [Compound 15, noranhyoicaritin] | 68.0% (8.1%) |  | 7.7 | 8.8 | 13.4 | 5.8 | 2.70 |  |
|  |  | COc1ccc(-c2coc3cc(O)ccc3c2=O)cc1 [Compound 20, formononetin] | 36.2% (2.0%) | 20.2% (1.0%) | 5.8 | 1.4 | -6.2 | 8.7 |  | 23.3% (0.9%) |
|  |  | O=C1O[C@H]([C@@H](O)CO)C(O)=C1O [VC, vitamin C, reference compound] |  | 97% |  |  |  |  |  |  |
|  |  | COc1ccc(C(=O)O)c(O)c1 [Compound 26, 4-methoxysalicylic acid] | 37.7% (1.6%) | 25.4% (4.9%) | -6.2 | 1.5 | 9.4 | 0.7 |  | 72.9% (3.0%) |
|  |  | O=C(O)c1ccc(O)cc1O [Compound 27, b-resorcylic acid] |  | 23.1% (2.5%) | 1.9 | 1.9 | 22.8 | 14.1 |  | 63.4% (1.4%) |
|  |  | COc1ccc(-c2coc3cc(O)ccc3c2=O)cc1O [Compound 19, calycosin] | 37.0% (0.7%) | 25.6% (1.1%) | 16.6 | 4.3 | 6.4 |  |  | 51.3% (2.4%) |
| 1.31 |  | C=C(C)[C@H](CCC(C)(C)O)Cc1c(O)cc(OC)c2c1O[C@H](c1ccc(O)cc1O)CC2=O [Compound 12, kurarinol] | 37.5% (1.7%) | 30.8% (1.9%) | 11.4 | 0.9 | 37 | 4.8 |  |  |
|  |  | COc1cc(O)c(CC=C(C)C)c(O)c1C(=O)/C=C/c1ccc(O)cc1 [Compound 7, xanthohumol] | 40.3% (1.4%) | 34.7% (1.9%) | 13.9 | 10.4 | 16.4 | 11.7 |  | 87.9% (2.0%) |
|  |  | O=C1C[C@@H](c2ccc(O)cc2)Oc2cc(O)cc(O)c21 [Compound 11, naringenin] | 37.8% (2.2%) | 24.5% (3.9%) | 5.8 | 3.6 | 14.7 | 0.7 |  | 55.4% (2.2%) |
|  |  | O=C(/C=C/c1ccc(O)cc1)c1ccc(O)cc1O [Compound 8, isoliquiritigenin] |  |  | -2.1 | 1.7 | -5.7 | 7.2 |  |  |
|  |  | CC(C)=CCc1c(O)cc(O)c2c1OC(c1ccc(O)cc1)CC2=O (stereo not shown) [Compound 10, sophoraflavanone B] | 38.6% (1.3%) | 32.2% (1.9%) | 4.7 | 9.3 | 8 | 7.7 |  | 88.0% (2.1%) |
|  | 0.80 | O=c1ccc2ccc(O)c(O)c2o1 [Compound 25, 7,8-dihydroxycoumarin] | 46.3% (4.8%) |  | 8.6 | 8.5 | 32.4 | 4.8 |  | 97.8% (1.8%) |
|  |  | O=c1ccc2ccc(O)cc2o1 [Compound 24, 7-hydroxycoumarin] | 36.6% (3.1%) | 25.2% (3.7%) | -0.3 |  | 21.4 | 5.7 |  | 16.8% (3.2%) |
|  |  | C=C(C)C(CCC(C)(C)O)Cc1cc(O)c(C(=O)/C=C/c2ccc(O)cc2O)c(OC)c1O (stereo not shown) [Compound 5, kuraridinol] | 37.7% (1.8%) | 29.1% (8.7%) | -7.2 | 5.6 | -0.2 | 7.4 |  | 75.7% (1.5%) |

| SMILES | ABTS radical scavenging IC50 [1] [µg/mL] | DPPH radical scavenging IC50 [3] [µg/mL] | PTIO radical scavenging activity (inhibition rate) [2] | DPPH radical scavenging activity (inhibition rate) [3] | inhibition at 10 µM (LO2 cells) [%] | inhibition at 10 µM (HepG2 cells) [%] | inhibition at 10 µM (A549 cells) [%] | inhibition at 10 µM (MCF7 cells) [%] | PTIO radical scavenging IC50 [2] [µg/mL] | ABTS radical scavenging activity (inhibition rate) [1] |
| --- | --- | --- | --- | --- | --- | --- | --- | --- | --- | --- |
| O=c1c(O)c(-c2ccc(O)c(O)c2)oc2cc(O)cc(O)c12 [Compound 16, quercetin] | 0.90 | 1.11 | 62.0% (2.2%) |  | 9.8 | 4.6 | 12.1 | 11.9 | 4.71 |  |
